Patent US4532367A, “Antimicrobially effective derivatives of phenol and methods for their production” (VEB Jenapharm, priority 1981, dated 1985)
Where a name gives a salt, the structure may show the parent alone.

Key:
Stability = type: physicochemical; conditions: in words
Solubility in water = type: physicochemical; conditions: in words
Gram-Positive Bacteria = assay: Effectiveness against gram-positive bacteria (general statement); type: cell-based; conditions: in words
[1] = Acute toxicity in white mice with subcutaneous application; conditions: mouse, in vivo, sc
From the text: *The toxicity in mg/kg body weight is understood as acute toxicity in
white mice with subcutaneous application.

antimicrobial = conditions: known compound, background statement; cited from earlier work
[2] = known compound, background statement; cited from earlier work
[3] = known compound, background statement; cited from earlier work; remark: listed apart in the source

Structure (SMILES) | solubility in water (Solubility in water) | LD50 [1] [mg/kg] | further results
Cc1cc(Cc2ccccc2)cc(Cl)c1O [calcium salt of 2-chloro-6-methyl-4-benzylphenol] [calcium salt of 6-chloro-2-methyl-4-benzylphenol] | only little soluble in water | – | stability (Stability): very stable; effectiveness against gram-positive bacteria (Gram-Positive Bacteria): particularly effective
Cc1cc(Cc2ccccc2)cc(Br)c1O [2-bromo-6-methyl-4-benzylphenol, 6-bromo-2-methyl-4-benzylphenol] | – | 1500 | –
Cc1cc(Cc2ccccc2)cc(Cl)c1O [sodium salt of 6-chloro-2-methyl-4-benzylphenol] | well water-soluble | – | –
Cc1cc(Cc2ccccc2)cc(Cl)c1O [potassium salt of 6-chloro-2-methyl-4-benzylphenol] | good | – | –
CCc1cc(Cc2ccccc2)cc(Br)c1O [2-bromo-6-ethyl-4-benzylphenol, 6-bromo-2-ethyl-4-benzylphenol] | – | 2800 | –
Cc1cc(Cc2ccccc2)cc(Cl)c1O [2-chloro-6-methyl-4-benzylphenol] | – | 1200 | antimicrobial efficacy (antimicrobial): generally good antimicrobial efficacy; water-solubility [2]: difficult water-solubility; skin compatibility [3]: well skin-compatible
